# Data: article PMC8509428, “The Phenoxyalkyltriazine Antagonists for 5-HT6 Receptor with Promising Procognitive and Pharmacokinetic Properties In Vivo in Search for a Novel Therapeutic Approach to Dementia Diseases” (International Journal of Molecular Sciences, 2021)
# Where two headings read alike, the source gives them in different places.
# Experiments:
# 5-HT1AR = biological target: T1, 5-HT1AR (Homo sapiens, UniProt P08908); experiment: Radioligand binding assay (RBA), 5-HT1AR; settings: ± SD; displacement of [3H]-8-OHDPAT, HEK-293 cells; read-out: Ki 5-HT1A (converted)
# T1 construct: expressed in transfected cells; host or cells: HEK-293
# T1 sequence (P08908 1-422): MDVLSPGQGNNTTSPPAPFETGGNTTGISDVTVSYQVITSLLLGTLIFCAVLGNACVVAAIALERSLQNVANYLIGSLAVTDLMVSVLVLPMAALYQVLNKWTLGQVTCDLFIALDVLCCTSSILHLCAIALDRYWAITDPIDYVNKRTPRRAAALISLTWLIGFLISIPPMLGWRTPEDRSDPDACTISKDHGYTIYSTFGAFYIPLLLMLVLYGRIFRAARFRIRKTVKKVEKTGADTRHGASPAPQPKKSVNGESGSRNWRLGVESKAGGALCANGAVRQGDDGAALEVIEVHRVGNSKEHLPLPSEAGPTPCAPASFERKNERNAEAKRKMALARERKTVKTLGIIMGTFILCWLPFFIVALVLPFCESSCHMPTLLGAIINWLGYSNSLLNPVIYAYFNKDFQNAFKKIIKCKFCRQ
# Experimental: The cells used in the radioligand binding assays receptor 5-HT1A were stably expressed in HEK-293 cells. Transfections were performed with the use of Lipofectamine 2000. The binding procedure was accomplished via the displacement of 2.5 nM [^3H]-8-OHDPAT (135.2 Ci/mmol) for 5-HT1AR. Each compound was tested in triplicate in seven to eight different concentrations (10^−11 to 10^−4 M). The inhibition constants (Ki) were calculated using the Cheng–Prusoff equation [45] and the results are expressed as the mean of at least two independent experiments.
# rats = experiment: Exploratory activity measured in the EPM test; type: in vivo, rat; settings: mean ± SEM
# Experimental: The experiment was performed using an EPM apparatus (details see above). Total ambulation (the total distance covered by a rat, and ambulation along X and Y axis) was taken to discern drug effects on general activity from those on open-arm exploration, during a 5-min test period (i.e., the time equal to the observation period in the EPM test). Rats’ behavior was not videotaped during the test.
# [1] = Bi-directional Caco-2 permeability assay; type: in vitro ADME; settings: human, pH 7.4, Caco-2, 10 µM, triplicate
# [2] = test system: Salmonella Typhimurium TA100; type: cell-based
# From the text: The used Salmonella Typhimurium TA100 strain has base pair substitution (hisG46 mutation, which target is GGG). […] The occurrence of revertants was visualized by pH indicator dye which was present in the bacterial medium.
# [3] = test system: neuroblastoma SH-SY5Y cells; experiment: Neurotoxicity in SH-SY5Y (MTS and LDH assays); type: cell-based, human; settings: 100 μM, 48 h, vs control cells
# Experimental: Human neuroblastoma cell line SH-SY5Y (ATCC® no. CRL-2266™) was used for neurotoxicity evaluation. […] To perform dose–response analysis, 2-fold serial dilutions (12 points) were prepared. Treatment with compounds was performed for 48 h. After the incubation time, 100μL of culture medium was transferred to black well plates to examined membrane integrity using the CytoTox-ONE™ Homogeneous Membrane Integrity Assay (Promega, Madison, WI, USA) following the manufacturer’s protocol. Briefly, a volume of 100 µL CytoTox-ONE™ reagent was added to each well and carefully mixed under gentle shaking. […] The plate was incubated at room temperature for 15 min and the fluorescence was then recorded at an excitation wavelength of 560 nm and an emission wavelength of 590 nm using the microplate reader EnSpire (PerkinElmer, Waltham, MA, USA). […] Cytotoxicity is expressed as a percentage relative to the positive control, which is assumed to be responsible for 100% LDH release.
# The cell viability was examined using an MTS-based [3-(4,5-dimethylthiazol-2-yl)-5-(3-carboxymethoxyphenyl)-2-(4-sulfophenyl)-2 H tetrazolium] […] After incubation time, formazan product turnover absorbance was measured at 490 nm using the microplate reader EnSpire (PerkinElmer, Waltham, MA, USA). […]
# [4] = biological target: human serotonin 5-HT6 receptor (Homo sapiens, UniProt P50406); experiment: Functional assay for 5-HT6 receptor (cAMP, 1321N1 cells)
# 5-HT2A receptor = biological target: T2, 5-HT2A receptor (Homo sapiens, UniProt P28223); experiment: Functional assay for 5-HT2A receptor (aequorin, CHO-K1 cells); type: cell-based
# T2 construct: expressed in transfected cells; host or cells: CHO-K1
# Experimental: Test compounds were dissolved in dimethyl sulfoxide (DMSO) at a concentration of 10 mM. Serial dilutions were prepared in a 96-well microplate in assay buffer and eight concentrations were tested. A cellular aequorin-based functional assay was performed with recombinant CHO-K1 cells expressing mitochondrially targeted aequorin, human GPCR and the promiscuous G protein α16 for 5-HT2A. […] After thawing, cells were transferred to assay buffer (DMEM/HAM’s F12 with 0.1% protease-free BSA) and centrifuged. The cell pellet was resuspended in assay buffer and coelenterazine h was added at final concentrations of 5 μM. […] After 1 h of incubation, 50 μL of the cells suspension was dispensed using automatic injectors built into the plate reader POLARstar Omega, (BMG Labtech, Ortenberg, Germany) onto a white opaque 96-well microplates preloaded with test compounds. Immediate light emission generated following calcium mobilization was recorded for 30 s. In antagonist mode, after 30 min of incubation, the reference agonist was added to the above assay mix and light emission was recorded again. The final concentration of the reference agonist was equal to EC80.
# [5] = Metabolic stability in rat liver microsomes; type: in vitro ADME
# Experimental: The tested 5-HT6R ligands (50 µM) were incubated in the presence of RLMs (1 mg/mL) in 10 mM Tris–HCl buffer (37 °C). The LC/MS analyses with additional MS ion fragmentation of the products and substrates were performed to determine the most probable structures of 5-HT6R ligands’ metabolites. LC/MS Waters ACQUITY™ TQD system with the TQ Detector (Waters, Milford, CT, USA).
# dopaminergic receptor D2 = settings: ± SD; cited from earlier work
# [6] = 1321-N1, read-out: 5-HT6 Antagonist Mode Emax
# [7] = 1321-N1, read-out: 5-HT6R Agonist Mode Emax
# [8] = estimated from MS spectra supported by in silico data
# Chain of human serotonin 5-HT6 receptor (P50406 whole entry): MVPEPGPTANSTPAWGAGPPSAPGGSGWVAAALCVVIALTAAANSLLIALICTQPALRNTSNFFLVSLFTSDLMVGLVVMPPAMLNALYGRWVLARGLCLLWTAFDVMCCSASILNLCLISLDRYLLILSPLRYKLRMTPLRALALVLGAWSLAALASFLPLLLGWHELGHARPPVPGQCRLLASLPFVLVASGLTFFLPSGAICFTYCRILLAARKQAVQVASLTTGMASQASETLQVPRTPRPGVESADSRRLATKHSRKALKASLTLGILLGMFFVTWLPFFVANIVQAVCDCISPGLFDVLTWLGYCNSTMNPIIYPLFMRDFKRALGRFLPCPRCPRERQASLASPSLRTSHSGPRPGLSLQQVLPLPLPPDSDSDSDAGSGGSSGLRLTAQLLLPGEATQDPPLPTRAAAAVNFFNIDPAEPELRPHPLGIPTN
# T2 sequence (P28223 whole entry): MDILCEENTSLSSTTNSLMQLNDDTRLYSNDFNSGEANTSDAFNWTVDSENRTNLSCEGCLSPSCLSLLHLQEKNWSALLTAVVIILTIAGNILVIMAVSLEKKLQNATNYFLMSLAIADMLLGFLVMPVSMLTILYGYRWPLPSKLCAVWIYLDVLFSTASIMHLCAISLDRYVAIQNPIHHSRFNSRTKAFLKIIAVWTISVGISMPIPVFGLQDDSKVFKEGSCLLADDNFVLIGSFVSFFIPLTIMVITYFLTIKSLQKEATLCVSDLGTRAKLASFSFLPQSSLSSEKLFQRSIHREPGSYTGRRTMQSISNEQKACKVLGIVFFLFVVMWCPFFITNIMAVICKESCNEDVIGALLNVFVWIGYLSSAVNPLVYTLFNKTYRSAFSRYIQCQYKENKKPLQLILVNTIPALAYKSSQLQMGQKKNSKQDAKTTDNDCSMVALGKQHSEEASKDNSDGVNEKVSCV
SMILES,Ki (5-HT1AR) [µM],Total Distance (rats; 0.3 mg/kg i.p.) [cm],X Ambulation (rats; 0.3 mg/kg i.p.),Y Ambulation (rats; 0.3 mg/kg i.p.),Total Distance (rats; 1 mg/kg i.p.) [cm],X Ambulation (rats; 1 mg/kg i.p.),Y Ambulation (rats; 1 mg/kg i.p.),Total Distance (rats; 3 mg/kg i.p.),X Ambulation (rats; 3 mg/kg i.p.),Y Ambulation (rats; 3 mg/kg i.p.),"Papp A→B at 2 h, 10 µM [1] [×10⁻⁶ cm/s]","Papp B→A at 2 h, 10 µM [1] [×10⁻⁶ cm/s]",Binomial B-Value ([2]; 1 µM),Number of Revertants ± SD ([2]; 1 µM),Binomial B-Value ([2]; 10 µM),Number of Revertants ± SD ([2]; 10 µM),"Emax [4, 6] [%]","Emax [4, 7] [%]","parent compound remaining in the reaction mixture (Area%) ([5]; RLMs, 120 min incubation) [%]","Metabolic Pathway, metabolite M1 [5, 8]",further results
"CCC(Oc1cccc(Cl)c1Cl)c1nc(N)nc(N2CCN(C)CC2)n1 (racemic) [Compound 2, (RS)-4-[1-(2,3-dichlorophenoxy)propyl]-6-(4-methylpiperazin-1-yl)-1,3,5-triazin-2-amine]",0.521,4372 ± 132,180 ± 9,101 ± 9,3987 ± 281,149 ± 18,78 ± 9,"4595± 191 F(3,23) = 2.9772; NS cm","168 ± 6 F(3,23) = 1.9417; NS","115 ± 7 F(3,23) = 3.1727; NS",50.3 ± 6.22,21.1 ± 2.14,0.2601,12.00 ± 7.55,0.5425,13.33 ± 2.31,96,5 ± 1.1,80,hydroxylation,"increase of LDH leakage [3]: 86%; Emax (5-HT2A receptor; Table S2, read-out: 5-HT2A Antagonist mode Emax): 1%; Emax (5-HT2A receptor; read-out: 5-HT2AR Agonist Mode Emax): 21 ± 0.6%; parent structure biotransformed ([5]; RLMs, 120 min incubation): 20%; Metabolic Pathway, metabolite M2 [5, 8]: hydroxylation; Metabolic Pathway, metabolite M3 [5, 8]: demethylation; Ki (dopaminergic receptor D2): 0.421 µM"
"CCC(Oc1ccccc1)c1nc(N)nc(N2CCN(C)CC2)n1 (racemic) [Compound 3, (RS)-4-(4-methylpiperazin-1-yl)-6-(1-phenoxypropyl)-1,3,5-triazin-2-amine]",3.64,4033 ± 340,151 ± 16,80 ± 8,4102 ± 291,136 ± 15,86 ± 10,"3545 ± 136 F(3,22) = 0.9071; NS cm","123 ± 5 F(3,22) = 0.6336; NS","73 ± 5 F(3,22) = 0.3805; NS",3.16 ± 1.35,10.1 ± 0.15,0.0001,0.33 ± 0.58,0.0324,1.67 ± 1.53,100,9 ± 1.4,95.7,decomposition and triple hydroxylation,"Metabolic Pathway, metabolite M2 [5, 8]: hydroxylation; Ki (dopaminergic receptor D2): 1.51 µM"
